Columns and labels:
[1] = Clearance in mouse at 3 mg/kg, iv by LC-MS/MS analysis; type: ADME, organism-based; conditions: in vivo
[2] = Clearance in mouse liver microsomes at 0.1 uM preincubated for 10 mins followed by NADPH addition and measured up to 60 mins by LC-MS/MS analysis; type: ADME, Microsome; conditions: 1 h
[3] = Half life in Sprague-Dawley rat at 1 mg/kg, iv by LC-MS/MS analysis; type: ADME, organism-based; conditions: in vivo
MM1.S = assay: Antiproliferative activity against human MM1S cells assessed as reduction in cell viability measured after 72 hrs by Celltitre-glo luminescence assay; type: functional, cell-based
[4] = molecular target: Bromodomain-containing protein 2 (Homo sapiens, UniProt P25440); assay: Binding affinity to human partial length BRD2 BD2 isoform 1 (E348 to D455 residues) expressed in bacterial expression system by bromoscan assay
Cytochrome P450 2D6 = Cytochrome P450 2D6 (Homo sapiens, UniProt P10635); assay: Inhibition of CYP2D6 in human liver microsomes using dextromethorphan as substrate preincubated for 10 mins followed by NADPH addition and measured after 15 mins by LC-MS/MS analysis; type: ADME
MV4-11 [5] = assay: Antiproliferative activity against human MV4-11 cells assessed as reduction in cell viability measured after 72 hrs by Celltitre-glo luminescence assay; type: functional, cell-based; conditions: MV4-11, 72 h
Cytochrome P450 2C9 = Cytochrome P450 2C9 (Homo sapiens, UniProt P11712); assay: Inhibition of CYP2C9 in human liver microsomes using tolbutamide as substrate preincubated for 10 mins followed by NADPH addition and measured after 15 mins by LC-MS/MS analysis; type: ADME
[6] = molecular target: T1, Bromodomain-containing protein 4 (Homo sapiens, UniProt O60885); assay: Inhibition of BRD4 in human MV4-11 cells assessed as up regulation of p21 expression measured after 6 to 24 hrs by Western blot analysis; type: cell-based
[7] = Toxicity in human MV4-11 cells xenografted mouse assessed as change in body weight at 6.25 to 12.5 mg/kg, po administered for 28 days and measured every 2 to 3 days during compound dosing; type: organism-based; conditions: in vivo
[8] = Half life in dog liver microsomes at 0.1 uM preincubated for 10 mins followed by NADPH addition and measured up to 60 mins by LC-MS/MS analysis; type: ADME, Canis lupus familiaris, Microsome
[9] = AUC (0 to t) in Sprague-Dawley rat at 1 mg/kg, iv by LC-MS/MS analysis; type: ADME, organism-based; conditions: in vivo
[10] = Clearance in human liver microsomes at 0.1 uM preincubated for 10 mins followed by NADPH addition and measured up to 60 mins by LC-MS/MS analysis; type: ADME, Microsome; conditions: 1 h
[11] = molecular target: T1, Bromodomain-containing protein 4; assay: Inhibition of BRD4 in human MV4-11 cells assessed as reduction in c-Myc expression measured after 6 to 24 hrs by Western blot analysis; type: cell-based
Cytochrome P450 3A4 [12] = molecular target: T2, Cytochrome P450 3A4 (Homo sapiens, UniProt P08684); assay: Inhibition of CYP3A4 in human liver microsomes using midazolam as substrate preincubated for 10 mins followed by NADPH addition and measured after 15 mins by LC-MS/MS analysis; type: ADME
[13] = Oral bioavailability in Sprague-Dawley rat at 3 mg/kg by LC-MS/MS analysis; type: ADME, organism-based; conditions: in vivo
[14] = Half life in human liver microsomes at 0.1 uM preincubated for 10 mins followed by NADPH addition and measured up to 60 mins by LC-MS/MS analysis; type: ADME, Microsome
[15] = Volume of distribution at steady state in mouse at 3 mg/kg, iv by LC-MS/MS analysis; type: ADME, organism-based; conditions: in vivo, read-out: Vdss
[16] = molecular target: Histone acetyltransferase p300 (Homo sapiens, UniProt Q09472); assay: Inhibition of MSGRGK(Ac)-GGK(Ac)GLGK(Ac)GGAKRHR-biotin binding to EP300 (1040 to 1160 residues) (unknown origin) expressed in Escherichia coli BL21 (DE3) by Alphascreen assay
[17] = Half life in Sprague-Dawley rat at 3 mg/kg, po by LC-MS/MS analysis; type: ADME, organism-based; conditions: in vivo
[18] = Half life in monkey liver microsomes at 0.1 uM preincubated for 10 mins followed by NADPH addition and measured up to 60 mins by LC-MS/MS analysis; type: ADME, Macaca mulatta, Microsome; conditions: rhesus monkey
[19] = Clearance in rat liver microsomes at 0.1 uM preincubated for 10 mins followed by NADPH addition and measured up to 60 mins by LC-MS/MS analysis; type: ADME, Microsome; conditions: 1 h
[20] = Oral bioavailability in mouse at 3 mg/kg by LC-MS/MS analysis; type: ADME, organism-based; conditions: in vivo
[21] = Half life in rat liver microsomes at 0.1 uM preincubated for 10 mins followed by NADPH addition and measured up to 60 mins by LC-MS/MS analysis; type: ADME, Microsome
Cytochrome P450 3A4 [22] = molecular target: T2, Cytochrome P450 3A4; assay: Inhibition of CYP3A4 in human liver microsomes using testosterone as substrate preincubated for 10 mins followed by NADPH addition and measured after 15 mins by LC-MS/MS analysis; type: ADME
[23] = molecular target: Voltage-gated inwardly rectifying potassium channel KCNH2 (Homo sapiens, UniProt Q12809); assay: Inhibition of human ERG at 40 uM by Qpatch automatic patch clamp method
[24] = molecular target: Bromodomain-containing protein 3 (Homo sapiens, UniProt Q15059); assay: Binding affinity to human partial length BRD3 BD2 (G306 to P416 residues) expressed in bacterial expression system by bromoscan assay
[25] = Half life in mouse at 3 mg/kg, iv by LC-MS/MS analysis; type: ADME, organism-based; conditions: in vivo
[26] = Clearance in dog liver microsomes at 0.1 uM preincubated for 10 mins followed by NADPH addition and measured up to 60 mins by LC-MS/MS analysis; type: ADME, Canis lupus familiaris, Microsome; conditions: 1 h
[27] = Cmax in Sprague-Dawley rat at 3 mg/kg, po by LC-MS/MS analysis; type: ADME, organism-based; design: dose 3 mg/kg, route oral; conditions: in vivo
[28] = AUC (0 to t) in Sprague-Dawley rat at 3 mg/kg, po by LC-MS/MS analysis; type: ADME, organism-based; conditions: in vivo
[29] = Clearance in Sprague-Dawley rat at 1 mg/kg, iv by LC-MS/MS analysis; type: ADME, organism-based; conditions: in vivo
MV4-11 [30] = assay: Antitumor activity against human MV4-11 cells xenografted in mouse assessed as tumor growth inhibition at 6.25 mg/kg, po administered for 28 days and measured every 2 to 3 days during compound dosing relative to control; type: functional; conditions: MV4-11, po, read-out: TGI

T2 sequence (P08684 whole entry): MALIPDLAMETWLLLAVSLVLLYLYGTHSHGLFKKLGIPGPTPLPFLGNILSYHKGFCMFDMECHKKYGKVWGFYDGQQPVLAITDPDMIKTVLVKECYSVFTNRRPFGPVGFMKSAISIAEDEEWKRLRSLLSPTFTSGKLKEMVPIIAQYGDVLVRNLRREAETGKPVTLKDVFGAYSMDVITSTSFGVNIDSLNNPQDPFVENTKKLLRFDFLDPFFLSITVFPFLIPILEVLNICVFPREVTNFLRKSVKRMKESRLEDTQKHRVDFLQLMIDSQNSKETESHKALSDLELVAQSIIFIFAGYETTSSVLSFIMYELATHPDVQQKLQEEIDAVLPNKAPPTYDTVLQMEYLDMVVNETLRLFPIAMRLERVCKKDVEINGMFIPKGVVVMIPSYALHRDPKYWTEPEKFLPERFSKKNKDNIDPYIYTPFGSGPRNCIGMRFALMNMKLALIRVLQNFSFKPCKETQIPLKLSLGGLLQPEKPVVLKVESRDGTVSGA
Voltage-gated inwardly rectifying potassium channel KCNH2, sequence (Q12809 whole entry, the tested form may be a part): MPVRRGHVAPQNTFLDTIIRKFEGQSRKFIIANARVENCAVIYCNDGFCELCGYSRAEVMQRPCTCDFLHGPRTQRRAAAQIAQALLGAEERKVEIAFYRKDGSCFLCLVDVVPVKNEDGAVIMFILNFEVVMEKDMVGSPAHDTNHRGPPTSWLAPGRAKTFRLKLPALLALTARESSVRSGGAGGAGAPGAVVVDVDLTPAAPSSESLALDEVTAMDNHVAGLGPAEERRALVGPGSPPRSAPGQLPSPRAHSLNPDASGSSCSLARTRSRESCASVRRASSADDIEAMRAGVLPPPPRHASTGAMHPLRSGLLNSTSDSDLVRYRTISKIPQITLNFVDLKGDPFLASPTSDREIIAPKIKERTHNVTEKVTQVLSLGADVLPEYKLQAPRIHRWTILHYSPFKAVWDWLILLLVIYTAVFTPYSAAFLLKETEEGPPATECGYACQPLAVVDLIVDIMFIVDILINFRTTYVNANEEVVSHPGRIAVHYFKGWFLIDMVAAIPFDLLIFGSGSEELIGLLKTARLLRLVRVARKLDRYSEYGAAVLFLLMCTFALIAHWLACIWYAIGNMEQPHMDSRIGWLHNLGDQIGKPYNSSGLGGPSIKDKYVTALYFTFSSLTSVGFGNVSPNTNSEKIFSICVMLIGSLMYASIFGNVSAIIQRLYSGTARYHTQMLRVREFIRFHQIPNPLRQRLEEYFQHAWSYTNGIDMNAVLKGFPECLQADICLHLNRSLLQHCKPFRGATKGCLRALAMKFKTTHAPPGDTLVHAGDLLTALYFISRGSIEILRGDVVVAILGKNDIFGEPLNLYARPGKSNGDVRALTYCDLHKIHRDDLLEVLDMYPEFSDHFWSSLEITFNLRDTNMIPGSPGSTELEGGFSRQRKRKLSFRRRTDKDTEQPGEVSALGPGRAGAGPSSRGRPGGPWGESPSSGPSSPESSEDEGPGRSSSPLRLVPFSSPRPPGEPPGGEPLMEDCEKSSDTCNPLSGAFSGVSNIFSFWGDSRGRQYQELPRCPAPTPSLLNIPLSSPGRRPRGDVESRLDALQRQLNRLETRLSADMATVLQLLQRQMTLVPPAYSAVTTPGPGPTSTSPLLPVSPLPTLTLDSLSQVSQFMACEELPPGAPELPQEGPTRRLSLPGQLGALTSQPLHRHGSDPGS
Cytochrome P450 2C9, sequence (P11712 whole entry): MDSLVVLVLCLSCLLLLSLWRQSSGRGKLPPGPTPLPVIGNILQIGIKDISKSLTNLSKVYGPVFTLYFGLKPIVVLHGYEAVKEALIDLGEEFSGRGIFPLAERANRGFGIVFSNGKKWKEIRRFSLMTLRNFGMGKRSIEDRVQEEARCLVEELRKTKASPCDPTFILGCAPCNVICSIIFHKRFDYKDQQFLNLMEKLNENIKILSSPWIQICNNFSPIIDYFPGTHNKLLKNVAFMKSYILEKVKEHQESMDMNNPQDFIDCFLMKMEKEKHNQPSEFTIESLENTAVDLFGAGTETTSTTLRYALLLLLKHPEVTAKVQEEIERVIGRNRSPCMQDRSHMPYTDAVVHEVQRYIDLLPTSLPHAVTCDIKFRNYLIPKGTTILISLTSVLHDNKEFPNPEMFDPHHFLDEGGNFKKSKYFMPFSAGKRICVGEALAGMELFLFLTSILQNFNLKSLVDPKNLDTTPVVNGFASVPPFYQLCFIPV
Bromodomain-containing protein 3, sequence (Q15059 whole entry, the tested form may be a part): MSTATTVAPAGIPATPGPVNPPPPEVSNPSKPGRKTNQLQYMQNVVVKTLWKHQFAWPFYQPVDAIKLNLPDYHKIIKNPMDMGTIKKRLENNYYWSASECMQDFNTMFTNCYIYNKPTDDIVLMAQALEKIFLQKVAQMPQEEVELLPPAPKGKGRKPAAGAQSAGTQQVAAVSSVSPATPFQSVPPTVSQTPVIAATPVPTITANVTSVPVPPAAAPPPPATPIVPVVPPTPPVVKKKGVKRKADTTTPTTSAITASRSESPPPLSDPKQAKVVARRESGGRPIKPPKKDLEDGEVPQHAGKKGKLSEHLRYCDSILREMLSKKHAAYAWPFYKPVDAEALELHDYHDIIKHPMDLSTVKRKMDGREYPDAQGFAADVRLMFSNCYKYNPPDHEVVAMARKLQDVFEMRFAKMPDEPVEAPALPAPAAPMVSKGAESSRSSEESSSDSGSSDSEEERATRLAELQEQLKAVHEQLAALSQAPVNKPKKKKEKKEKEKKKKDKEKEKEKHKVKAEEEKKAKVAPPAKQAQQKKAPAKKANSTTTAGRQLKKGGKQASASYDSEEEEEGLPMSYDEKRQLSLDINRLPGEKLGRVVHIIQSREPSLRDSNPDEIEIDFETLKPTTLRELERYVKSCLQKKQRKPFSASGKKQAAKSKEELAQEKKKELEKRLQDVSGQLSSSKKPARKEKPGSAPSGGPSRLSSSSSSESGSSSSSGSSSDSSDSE
Cytochrome P450 2D6, sequence (P10635 whole entry): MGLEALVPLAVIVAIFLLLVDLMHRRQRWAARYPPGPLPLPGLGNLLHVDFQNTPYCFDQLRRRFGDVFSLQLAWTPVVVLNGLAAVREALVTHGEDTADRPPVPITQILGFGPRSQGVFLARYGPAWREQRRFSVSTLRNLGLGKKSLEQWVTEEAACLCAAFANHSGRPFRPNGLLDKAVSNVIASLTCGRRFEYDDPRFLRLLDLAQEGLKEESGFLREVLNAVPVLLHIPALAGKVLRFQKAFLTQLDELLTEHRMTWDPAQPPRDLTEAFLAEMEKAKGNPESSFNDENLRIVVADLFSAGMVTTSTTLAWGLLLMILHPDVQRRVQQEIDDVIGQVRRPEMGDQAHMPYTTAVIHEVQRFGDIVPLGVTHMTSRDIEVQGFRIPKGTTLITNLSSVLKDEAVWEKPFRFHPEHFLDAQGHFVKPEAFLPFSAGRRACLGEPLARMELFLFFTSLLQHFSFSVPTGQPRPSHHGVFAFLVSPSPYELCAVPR
Bromodomain-containing protein 2, sequence (P25440 whole entry, the tested form may be a part, canonical isoform): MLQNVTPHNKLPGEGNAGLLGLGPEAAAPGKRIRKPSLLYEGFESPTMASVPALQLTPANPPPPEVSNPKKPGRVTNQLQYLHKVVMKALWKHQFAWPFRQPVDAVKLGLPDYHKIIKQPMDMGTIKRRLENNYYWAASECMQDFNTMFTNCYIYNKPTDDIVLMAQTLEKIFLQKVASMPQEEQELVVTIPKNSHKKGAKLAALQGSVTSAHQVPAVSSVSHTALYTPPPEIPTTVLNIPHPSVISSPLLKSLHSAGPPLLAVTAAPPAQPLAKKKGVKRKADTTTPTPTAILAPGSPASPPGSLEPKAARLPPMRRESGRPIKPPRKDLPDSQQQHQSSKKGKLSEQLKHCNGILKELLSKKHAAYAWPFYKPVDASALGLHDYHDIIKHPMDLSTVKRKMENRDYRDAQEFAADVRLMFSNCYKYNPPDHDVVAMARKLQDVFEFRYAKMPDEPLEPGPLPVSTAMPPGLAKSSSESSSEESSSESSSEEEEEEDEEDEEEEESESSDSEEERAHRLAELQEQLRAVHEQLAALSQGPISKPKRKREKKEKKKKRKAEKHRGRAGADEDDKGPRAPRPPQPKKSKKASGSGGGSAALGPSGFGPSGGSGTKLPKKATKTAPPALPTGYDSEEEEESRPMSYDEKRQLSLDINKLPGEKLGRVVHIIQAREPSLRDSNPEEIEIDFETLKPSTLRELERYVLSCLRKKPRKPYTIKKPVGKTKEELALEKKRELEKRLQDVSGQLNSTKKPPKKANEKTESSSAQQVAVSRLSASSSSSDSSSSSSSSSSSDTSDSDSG

clearance [1]: 15.3 mL/min/kg
Microsomal intrinsic clearance [2]: 25.4 mL/min/g
half-life [3]: 1.3 h
IC50 (MM1.S): 15.9 nM
Kd [4]: 1.3 nM
IC50 (Cytochrome P450 2D6): > 20000 nM
IC50 (MV4-11 [5]): 2.4 nM
IC50 (Cytochrome P450 2C9): > 20000 nM
inhibition [6]: Dose-dependent effect
half-life at 0.1 µM [8]: 1.39 h
AUC(0-t) [9]: 848 ng·h/mL
Microsomal intrinsic clearance [10]: 12.2 mL/min/g
inhibition [11]: Dose-dependent effect
IC50 (Cytochrome P450 3A4 [12]): > 20000 nM
bioavailability [13]: 34.7%
half-life at 0.1 µM [14]: 2.87 h
Vd [15]: 0.782 L/kg
IC50 [16]: 3860 nM
half-life [17]: 3.6 h
half-life at 0.1 µM [18]: 0.817 h
Intrinsic clearance [19]: 64.8 mL/min/g
bioavailability [20]: 52.3%
half-life at 0.1 µM [21]: 0.54 h
IC50 (Cytochrome P450 3A4 [22]): > 20000 nM
Kd [24]: 1 nM
half-life [25]: 0.9 h
CLH [26]: 25.2 mL/min/g
Cmax [27]: 159 ng/mL
AUC(0-t) [28]: 884 ng·h/mL
clearance [29]: 21.5 mL/min/kg
SMILES: CCS(=O)(=O)Cc1cnc(Oc2ccc(F)cc2F)c(-c2cc(C)c3c(=O)[nH]ccn23)c1
Activity [7]: Non-Toxic
inhibition (INH) [23]: Not Active
inhibition in vivo at 6.25 mg/kg (MV4-11 [30]): 76.4%

From ChEMBL document CHEMBL4402585 (J Med Chem, 2020)
